Series [1] relates to diastolic blood pressure (DBP). Kind of series: Effect on diastolic blood pressure in anaesthetised dogs, i.v. administration. Type of series: in vivo. The following applies: dog, dose inducing a 25% decrease in diastolic blood pressure, one value spanning c3 and c4. As for the experimental part: The experiments were performed according to the method of Imagawa J. et al., J Pharmacol. Methods 22, 103-111 (1989), with substantial modifications, as follows: adult male beagle dogs, weighing 8-10 kg, were anaesthetised with pentobarbital sodium (30 mg/kg i.v. and 2 mg/kg/h i.v.), intubated and spontaneously ventilated with room air. In order to monitor systemic blood pressure (BP), a polyethylene (PE) catheter was introduced into the aortic arch through the left femoral artery. A collateral of the left femoral vein was cannulated for infusion of anaesthetic, and the right femoral vein was cannulated for administration of the compounds. For intraarterial (i.a.) injection of noradrenaline (NA), a PE catheter was introduced into the lower portion of the abdominal aorta via the right external iliac artery. Through such procedure, NA was selectively distributed to the lower urinary tract. A paramedian vertical suprapubic incision extending from the base of the pelvis to the mid-abdominal region was made and the bladder and the prostate were exposed. The bladder was manually emptied with a syringe. […] The distal end of the right or left branch of the nerve was placed on a bipolar platinum electrode. Prostatic urethral pressure was monitored with a Mikro-tip catheter (5F) introduced into the bladder via the external urethral meatus, and withdrawn until the pressure transducer was positioned in the prostatic region of the urethra. A ligature was secured between the neck of the bladder and urethra to isolate the response of the latter and to avoid any interaction with the bladder. Another ligature was put around the Mikro-tip catheter at the external meatus, to secure the catheter itself. The hypogastric nerve stimulation was made with a train of rectangular pulses of 10-15 V, 10-30 Hz, width 5 msec, 8 sec duration.
After a stabilising period following the surgical procedure (30 minutes), in which arterial and prostatic urethral pressure were continuously monitored as basal values, i.a. administration of NA and stimulation of the hypogastric nerve were alternately made at intervals of 10 minutes.
The dose of NA and the parameter of hypogastric nerve stimulation chosen were such as to produce an increase of at least 100% in urethral pressure. The test compounds were administered i.v. in a cumulative manner with intervals of 15-20 min between administrations. Both i.a. injections of NA and stimulations of the hypogastric nerve were repeated 5 minutes after every dosing of test compound with intervals of about 5 minutes between two stimulations. […]

Series [2] concerns urethral contractions (UP) induced by noradrenaline (NA). Kind of series: Urethral contractions induced by noradrenaline injection in anaesthetised dogs, i.v. administration. Type of series: in vivo. The following applies: dog; for ED50: Canis lupus familiaris, iv, dose inhibiting by 50% urethral contractions induced by noradrenaline, read-out: UP ID50 NA; for R1 (DBP/NA): ratio DBP ED25 / UP ID50 NA. As to the method:
(§1) The experiments were performed according to the method of Imagawa J. et al., J Pharmacol. Methods 22, 103-111 (1989), with substantial modifications, as follows: adult male beagle dogs, weighing 8-10 kg, were anaesthetised with pentobarbital sodium (30 mg/kg i.v. and 2 mg/kg/h i.v.), intubated and spontaneously ventilated with room air. In order to monitor systemic blood pressure (BP), a polyethylene (PE) catheter was introduced into the aortic arch through the left femoral artery. A collateral of the left femoral vein was cannulated for infusion of anaesthetic, and the right femoral vein was cannulated for administration of the compounds. For intraarterial (i.a.) injection of noradrenaline (NA), a PE catheter was introduced into the lower portion of the abdominal aorta via the right external iliac artery. Through such procedure, NA was selectively distributed to the lower urinary tract. A paramedian vertical suprapubic incision extending from the base of the pelvis to the mid-abdominal region was made and the bladder and the prostate were exposed. The bladder was manually emptied with a syringe. […] The distal end of the right or left branch of the nerve was placed on a bipolar platinum electrode. Prostatic urethral pressure was monitored with a Mikro-tip cathe[…]) introduced into the bladder via the external urethral meatus, and withdrawn until the pressure transducer was positioned in the prostatic region of the urethra. A ligature was secured between the neck of the bladder and urethra to isolate the response of the latter and to avoid any interaction with the bladder. Another ligature was put around the Mikro-tip catheter at the external meatus, to secure the catheter itself. […] Both i.a. injections of NA and stimulations of the hypogastric nerve were repeated 5 minutes after every dosing of test compound with intervals of about 5 minutes between two stimulations. In order to compare the effects of the administered compound, dose/response curves were constructed by computing, at the peak effect, the percent decrease in diastolic blood pressure and the percent inhibition of the increase in urethral pressure induced by both types of stimulation used.

Series [3] deals with T1, recombinant α1d-adrenoceptor (Homo sapiens, UniProt P25100).
T1 sequence (P25100 1-572): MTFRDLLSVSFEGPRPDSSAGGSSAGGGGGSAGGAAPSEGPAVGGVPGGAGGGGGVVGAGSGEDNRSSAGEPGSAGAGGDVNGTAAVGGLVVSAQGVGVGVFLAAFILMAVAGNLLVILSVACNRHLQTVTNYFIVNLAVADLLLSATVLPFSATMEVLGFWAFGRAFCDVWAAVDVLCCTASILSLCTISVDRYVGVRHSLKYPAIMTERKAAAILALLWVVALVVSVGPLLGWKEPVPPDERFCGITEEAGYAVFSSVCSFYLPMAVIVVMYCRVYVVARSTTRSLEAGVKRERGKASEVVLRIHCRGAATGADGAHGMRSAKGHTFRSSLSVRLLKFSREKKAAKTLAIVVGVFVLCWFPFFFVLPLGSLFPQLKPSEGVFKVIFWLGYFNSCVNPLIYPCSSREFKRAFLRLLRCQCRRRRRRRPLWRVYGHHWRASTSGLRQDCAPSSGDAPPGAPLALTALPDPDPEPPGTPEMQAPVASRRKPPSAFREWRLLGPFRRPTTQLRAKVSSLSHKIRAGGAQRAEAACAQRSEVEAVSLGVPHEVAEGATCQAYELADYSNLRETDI
Kind of series: Radioligand binding assay ([3H]prazosin) on cloned α1-adrenoceptor subtype, membranes of transfected cells. The following applies: for Ki: read-out: Affinity (Ki, nM) α1d, recombinant receptor, [3H]prazosin.
Method: (§2) Determination of affinity for cloned subtypes of the cloned α1-adrenoceptor was performed in membranes from cells transfected by electroporation with DNA expressing the genes encoding each α1-adrenoceptor subtype.
(§3) Non-specific binding was determined in the presence of 10 µM phentolamine. Incubation was stopped by addition of ice-cold Tris buffer and rapid filtration through 0.2%-polyethyleneimine pretreated Schleicher & Schuell GF52 filters. […] The homogenates were centrifuged at 40000 × g × 20 minutes and the membranes were resuspended in a small volume of ice-cold buffer containing Tris 5 mM and EDTA 5 mM (pH 7.4) and immediately frozen and stored at -70°C until use.

In another series the target is T2, α1a adrenergic receptor (Homo sapiens, UniProt P35348).
T2 sequence (P35348 1-466): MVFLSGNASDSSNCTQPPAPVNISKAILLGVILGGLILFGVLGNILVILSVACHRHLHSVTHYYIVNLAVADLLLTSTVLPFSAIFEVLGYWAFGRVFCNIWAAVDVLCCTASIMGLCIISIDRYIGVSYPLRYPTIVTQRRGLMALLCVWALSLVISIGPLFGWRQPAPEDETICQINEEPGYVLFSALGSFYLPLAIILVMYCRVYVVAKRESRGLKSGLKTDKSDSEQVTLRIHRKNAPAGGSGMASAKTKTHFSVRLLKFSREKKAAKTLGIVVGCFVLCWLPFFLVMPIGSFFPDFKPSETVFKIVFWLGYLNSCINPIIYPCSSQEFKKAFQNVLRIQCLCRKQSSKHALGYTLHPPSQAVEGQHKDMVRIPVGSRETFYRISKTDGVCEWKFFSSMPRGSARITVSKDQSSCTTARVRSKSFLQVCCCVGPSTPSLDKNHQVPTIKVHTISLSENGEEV
The description is as above.

In series [4] the target is T3, human 5-HT1A-serotoninergic receptor (Homo sapiens, UniProt P08908).
T3 construct: expressed in transfected cells; host or cells: HeLa
T3 sequence (P08908 1-422): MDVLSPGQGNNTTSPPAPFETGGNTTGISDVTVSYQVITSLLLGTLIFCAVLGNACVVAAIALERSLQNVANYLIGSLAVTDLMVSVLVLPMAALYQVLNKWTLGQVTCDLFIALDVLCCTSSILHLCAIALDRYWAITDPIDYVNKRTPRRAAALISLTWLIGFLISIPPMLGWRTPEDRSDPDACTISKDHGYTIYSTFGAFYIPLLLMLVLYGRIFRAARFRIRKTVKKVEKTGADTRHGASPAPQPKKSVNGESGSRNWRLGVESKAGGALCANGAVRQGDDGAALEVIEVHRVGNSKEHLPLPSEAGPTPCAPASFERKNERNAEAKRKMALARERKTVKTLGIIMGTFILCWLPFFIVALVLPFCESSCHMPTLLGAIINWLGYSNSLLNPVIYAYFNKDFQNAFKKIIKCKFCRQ
Kind of series: Radioligand binding assay ([3H]8-OH-DPAT) on membranes of transfected HeLa cells. The following applies: human receptor in HeLa cells, read-out: Affinity (Ki, nM) 5-HT1A. The source says: Data were expressed as mean of Ki.

In series [5] the test system is urethral contractions (UP) induced by hypogastric-nerve stimulation (HYP). Kind of series: Urethral contractions induced by hypogastric-nerve stimulation in anaesthetised dogs, i.v. administration. Type of series: in vivo. The following applies: Canis lupus familiaris, iv, dog, dose inhibiting by 50% urethral contractions induced by hypogastric-nerve stimulation, read-out: UP ID50 HYP. As to the method: as §1, with “In order to compare the effects of the administered compound, dose/response curves were constructed by computing, at the peak effect, the percent decrease in diastolic blood pressure and the percent inhibition of the increase in urethral pressure induced by both types of stimulation used.” left out

Usually Ki stands for the equilibrium dissociation constant of an inhibitor or competing ligand from its target. Broadly, the pKi is the negative decadic logarithm of the Ki, by convention in mol/L.

The structures appear in SMILES notation. pKi: −log10 of the molar value. Where two headings read alike, the source gives them in different places.

Method for α1a adrenergic receptor: as §2, §3

For `COc1ccc(Cl)cc1N1CCN(CCCNC(=O)c2c(-c3ccccc3)noc2C)CC1` [Example 1, N-{3-[4-(5-Chloro-2-methoxyphenyl)-1-piperazinyl]-propyl}-5-methyl-3-phenylisoxazole-4-carboxamide], in series [1], the “DBP ED25” value is on record as 345.4 µg/kg. In series [2], the ED50 stood at 3.4 µg/kg and the “R1 (DBP/NA)” value worked out at 101.6. Also, in series [3], the Ki turned out to be 2.72 nM.

For the compound `Cc1onc(-c2ccccc2)c1C(=O)NCCCN1CCN(c2cc(Cl)ccc2O)CC1` [Example 2, N-{3-[4-(5-Chloro-2-hydroxyphenyl)-1-piperazinyl]-propyl}-5-methyl-3-phenylisoxazole-4-carboxamide], the values for the pKi (on α1a adrenergic receptor; in series [3]) were 8.94 and 7.60, respectively.

Consider `COc1ccc(OCC(F)(F)F)cc1N1CCN(CCCNC(=O)c2c(-c3ccccc3)noc2C)CC1` [Example 4, N-{3-[4-[2-Methoxy-5-(2,2,2-trifluoroethoxy)phenyl]-1-piperazinyl]-propyl}-5-methyl-3-phenylisoxazole-4-carboxamide], for which the results for the negative-log Ki (pKi) (on α1a adrenergic receptor; in series [3]) were 7.77 and 6.89, respectively. Besides, in series [4], the Ki is more than 1000 nM.

Take `Cc1onc(-c2ccccc2)c1C(=O)NCCCN1CCN(c2ccc(F)cc2OCC(F)(F)F)CC1` [Example 6, N-{3-[4-[4-Fluoro-2-(2,2,2-trifluoroethoxy)-phenyl]-1-piperazinyl]-propyl}-5-methyl-3-phenylisoxazole-4-carboxamide]: the “DBP ED25” value in series [1] was determined as 196.7 µg/kg. For the same compound, in series [5], the ED50 was 4.5 µg/kg. In series [2], the ED50 was found to be 2.4 µg/kg and the “R1 (DBP/NA)” value turned out to be 82. Also, the Ki in series [3] amounted to 18.9 nM.

On to `Cc1onc(-c2ccccc2)c1C(=O)NCCCN1CCN(c2cc(Cl)ccc2OS(=O)(=O)C(F)(F)F)CC1` [Example 7, N-{3-[4-[(5-Chloro-2-trifluoromethanesulphonyloxy)-phenyl]-1-piperazinyl]-propyl}-5-methyl-3-phenylisoxazole-4-carboxamide], for which the pKi was 9.04 at α1a adrenergic receptor and 7.41 in series [3]. Besides, the Ki in series [4] was determined as 1000 nM.

In the case of `O=C(NCCCN1CCN(c2ccc(F)cc2OCC(F)(F)F)CC1)c1conc1-c1ccc(F)cc1` [Example 8, 3-(4-Fluorophenyl)-N-{3-[4-[4-fluoro-2-(2,2,2-trifluoroethoxy)-phenyl]-1-piperazinyl]-propyl}-isoxazole-4-carboxamide], the negative logarithm of the Ki (pKi) was 9.96 on α1a adrenergic receptor and 7.59 in series [3].

Turning to `Cc1onc(-c2c(F)cccc2Cl)c1C(=O)NCCCN1CCN(c2ccc(F)cc2OCC(F)(F)F)CC1` [Example 9, 3-(2-Chloro-6-fluorophenyl)-N-{3-[4-[4-fluoro-2-(2,2,2-trifluoroethoxy)-phenyl]-1-piperazinyl]-propyl}-5-methylisoxazole-4-carboxamide], the pKi on α1a adrenergic receptor was 9.40; in series [3], 8.21.

`Cc1onc(-c2c(Cl)cccc2Cl)c1C(=O)NCCCN1CCN(c2ccc(F)cc2OCC(F)(F)F)CC1` [Example 10, 3-(2,6-Dichlorophenyl)-N-{3-[4-[4-fluoro-2-(2,2,2-trifluoroethoxy)-phenyl]-1-piperazinyl]-propyl}-5-methylisoxazole-4-carboxamide.]: the pKi was 8.64 at α1a adrenergic receptor and 7.41 in series [3].

In the case of `Cc1onc(-c2ccccc2Cl)c1C(=O)NCCCN1CCN(c2ccc(F)cc2OCC(F)(F)F)CC1` [Example 11], the pKi at α1a adrenergic receptor was 9.92; in series [3], 8.33.

Take `Cc1onc(-c2c(F)cccc2Cl)c1C(=O)NCCCN1CCN(c2ccccc2OCC(F)(F)F)CC1` [Example 12, 3-(2-Chloro-6-fluorophenyl)-5-methyl-N-{3-[4-[2-(2,2,2-trifluoroethoxy)phenyl)-1-piperazinyl]-propyl}-isoxazole-4-carboxamide]: the results for the pKi (at α1a adrenergic receptor; in series [3]) were 9.80 and 8.66, respectively.

Source of the values: EP1226131B1, “ISOXAZOLECARBOXAMIDE DERIVATIVES” (RECORDATI INDUSTRIA CHIMICA E FARMACEUTICA S.p.a., priority 1999, dated 2001).
